Laboratory results: patent US20110105550A1 (SALIX PHARMACEUTICALS, LTD., priority 2008, published 2011)
“Also recorded” adds a separate entry of the source. Values belong to the compound of their own block, whether it stands above or below them.

Assays:
Assay type in all cases: physicochemical
[1] = Stressing under various relative humidities (RH), solid form by XRPD; settings: for RH stability: solid form after exposure, 58% RH / RH stability: solid form after exposure, 75% RH: duration not printed in Table 1, am = amorphous
From the text: The jar was sealed and stored at either ambient temperature or in an oven at elevated temperature.

[2] = Automated moisture sorption/desorption (moisture balance); settings: for Post-moisture sorption/desorption XRPD form: sorption from 5% RH to 95% RH, desorption from 95% RH to 5% RH; for wt loss from 95 to 5% RH: desorption 95 to 5% RH; for Hygroscopicity: moisture balance; for wt gain from 5 to 95% RH: sorption 5 to 95% RH
Description: Moisture sorption/desorption data were collected on a VTI SGA-100 Vapor Sorption Analyzer. Sorption and desorption data were collected over a range of 5% to 95% relative humidity (RH) at 10% RH intervals under a nitrogen purge. Samples were not dried prior to analysis. Equilibrium criteria used for analysis were less than 0.0100% weight change in 5 minutes, with a maximum equilibration time of 3 hours if the weight criterion was not met. Data were not corrected for the initial moisture content of the samples. NaCl and PVP were used as calibration standards.

[3] = Rifaximin drying experiments, solid form by XRPD
[4] = Vapor stressing / vapor diffusion of amorphous rifaximin; settings: for Form obtained in vapor diffusion experiment: water as antisolvent
Description: (§1) Vapor stressing experiments were done on amorphous material from two preparations: lyophilization from p-dioxane:water 1:1 and crash precipitation from ethyl acetate with heptane. […] The majority of the stressed samples appeared as clear red solutions after 6 days. Those solutions were placed in vials of antisolvent for vapor diffusion. Dry and wet milling experiments were conducted on amorphous materials from the two preparations mentioned above. Amorphous materials were recovered from the dry milling experiments.

[5] = Dynamic vapor sorption/desorption (DVS) of amorphous preparations
Description: Based on the data, relative humidity stressing studies of the two amorphous materials at 40° C./75% RH are recommended.

[6] = Milling experiments for amorphous materials; settings: 10 min. at 30 Hz, scraped sides, 10 min. at 30 Hz (dry milling)
Description: as §1
A solid sample of rifaximin was charged to a milling container with a milling ball. Samples were milled for 5 or 15 minute intervals (2×5 minutes, 2×15 minutes, and 3×15 minutes) at 30 Hz using a Retsch MM200 mixer mill. Solids were scraped from the sides of the vial after each interval.

[7] = first sample of Table 3 (by elimination: lyophilization in p-dioxane:water 1:1)
[8] = second sample of Table 3 (crash precipitation from ethyl acetate with heptane)

Final Form (XRPD) ([1]; P2O5, 4 days): α dry
SMILES: CO[C@H]1/C=C/O[C@@]2(C)Oc3c(C)c(O)c4c(O)c(c5c(nc6cc(C)ccn65)c4c3C2=O)NC(=O)/C(C)=C\C=C\[C@H](C)[C@H](O)[C@@H](C)[C@@H](O)[C@@H](C)[C@H](OC(C)=O)[C@@H]1C [Form α, reference compound]

Final Form (XRPD) ([1]; 33% RH, 2 days): α
Final Form (XRPD) ([1]; 33% RH, 7 days): α
Final Form (XRPD) ([1]; 43% RH, 4 days): α + β
Final Form (XRPD) ([1]; 43% RH, 11 days): β + (α)
Final Form (XRPD) ([1]; 58% RH, 2 days): β
RH stability: solid form after exposure, 58% RH ([1]; 58% RH, listed as α dry): β
Final Form (XRPD) ([1]; 75% RH, 2 days): β
RH stability: solid form after exposure, 75% RH ([1]; 75% RH, listed as α dry): β
Final Form (XRPD) ([1]; 94% RH, 2 days): β
Post-moisture sorption/desorption XRPD form ([2]; listed as α dry): α dry
XRPD Form after drying ([3]; vac oven 50° C., 1 day): α dry
XRPD Form after drying ([3]; vac oven 50° C., 1 day, vac oven 60° C.): α dry
XRPD Form after drying ([3]; vac oven 60-65° C., 3 days, listed as α dry): α dry
Solid form after vacuum drying ([3]; vacuum dried (Table 1 column), listed as α dry): α dry
SMILES: CO[C@H]1/C=C/O[C@@]2(C)Oc3c(C)c(O)c4c(O)c(c5c(nc6cc(C)ccn65)c4c3C2=O)NC(=O)/C(C)=C\C=C\[C@H](C)[C@H](O)[C@@H](C)[C@@H](O)[C@@H](C)[C@H](OC(C)=O)[C@@H]1C [Form α-dry]

Final Form (XRPD) ([1]; 33% RH, 4 days): β
Final Form (XRPD) ([1]; 58% RH, 3 days): β + peak @4.87 °2θ
RH stability: solid form after exposure, 58% RH ([1]; 58% RH, listed as β-1): β + pk
Final Form (XRPD) ([1]; 75% RH, 3 days): β
RH stability: solid form after exposure, 75% RH ([1]; 75% RH, listed as β-1): β
Final Form (XRPD) ([1]; 94% RH, 3 days): β
RH stability: solid form after exposure, 94% RH ([1]; 94% RH, duration not given): β
SMILES: CO[C@H]1/C=C/O[C@@]2(C)Oc3c(C)c(O)c4c(O)c(c5c(nc6cc(C)ccn65)c4c3C2=O)NC(=O)/C(C)=C\C=C\[C@H](C)[C@H](O)[C@@H](C)[C@@H](O)[C@@H](C)[C@H](OC(C)=O)[C@@H]1C [Form β-1]

Final Form (XRPD) ([1]; under N2 atmosphere, 20% RH, 3 days): α^d and α
XRPD Form after drying ([3]; vac oven, 40° C., 1 day, listed as β-2): α dry
Solid form after vacuum drying ([3]; vacuum dried (Table 1 column), listed as β-2): α dry
SMILES: CO[C@H]1/C=C/O[C@@]2(C)Oc3c(C)c(O)c4c(O)c(c5c(nc6cc(C)ccn65)c4c3C2=O)NC(=O)/C(C)=C\C=C\[C@H](C)[C@H](O)[C@@H](C)[C@@H](O)[C@@H](C)[C@H](OC(C)=O)[C@@H]1C [Form β-2]

wt loss from 95 to 5% RH [2]: 11.7%
wt loss upon equilibration at 5% RH [2]: 2.4%
Hygroscopicity [2]: hygroscopic
wt gain from 5 to 95% RH [2]: 10.8%
XRPD Form after drying ([3]; vac oven, ambient, 1 day): remained unchanged
SMILES: CO[C@H]1/C=C/O[C@@]2(C)Oc3c(C)c(O)c4c(O)c(c5c(nc6cc(C)ccn65)c4c3C2=O)NC(=O)/C(C)=C\C=C\[C@H](C)[C@H](O)[C@@H](C)[C@@H](O)[C@@H](C)[C@H](OC(C)=O)[C@@H]1C [Form γ, reference compound]

Final Form (XRPD) ([1]; P2O5, 3 days): ε dry
SMILES: CO[C@H]1/C=C/O[C@@]2(C)Oc3c(C)c(O)c4c(O)c(c5c(nc6cc(C)ccn65)c4c3C2=O)NC(=O)/C(C)=C\C=C\[C@H](C)[C@H](O)[C@@H](C)[C@@H](O)[C@@H](C)[C@H](OC(C)=O)[C@@H]1C [Form δ, reference compound]

XRPD Form after drying ([3]; vac oven 60-65° C., 3 days, listed as ε): ε dry
SMILES: CO[C@H]1/C=C/O[C@@]2(C)Oc3c(C)c(O)c4c(O)c(c5c(nc6cc(C)ccn65)c4c3C2=O)NC(=O)/C(C)=C\C=C\[C@H](C)[C@H](O)[C@@H](C)[C@@H](O)[C@@H](C)[C@H](OC(C)=O)[C@@H]1C [Form ε, reference compound]

Final Form (XRPD) ([1]; 43% RH, 3 days): Form γ
Final Form (XRPD) ([1]; 43% RH, 3 days, listed as ζ): γ
Final Form (XRPD) ([1]; 58% RH, 3 days): Form γ-1 (ζ)
Final Form (XRPD) ([1]; 75% RH, 3 days): Form γ-1 (ζ)
Final Form (XRPD) ([1]; stability chamber, 75% RH at 40° C., 1 day): ζ + γ^e
XRPD Form after drying ([3]; air dry): γ
XRPD Form after drying ([3]; open vial in hood): γ
XRPD Form after storage ([3]; stored in refrigerator 3 weeks): ζ
XRPD Form after drying ([3]; vac dry): γ + η
XRPD Form after drying ([3]; vac oven, 40° C., 1 day): remained unchanged
XRPD Form after drying ([3]; vac oven, 45° C., 2 days): η
XRPD Form after drying ([3]; vac oven, ambient, 1 day): Form η
XRPD Form after drying ([3]; vac oven, ambient, 1 day, listed as ζ): η
Solid form after vacuum drying ([3]; vacuum dried (Table 1)): η or and γ + η
SMILES: CO[C@H]1/C=C/O[C@@]2(C)Oc3c(C)c(O)c4c(O)c(c5c(nc6cc(C)ccn65)c4c3C2=O)NC(=O)/C(C)=C\C=C\[C@H](C)[C@H](O)[C@@H](C)[C@@H](O)[C@@H](C)[C@H](OC(C)=O)[C@@H]1C [Form ζ]
Final Form (XRPD) ([1]; 94% RH, 3 days): Form β+γ-1 (ζ); also recorded: Form β30 γ-1 (ζ)

XRPD Form after drying ([3]; vac oven, 40° C., 1 day): remained unchanged
XRPD Form after drying ([3]; vac oven, 40° C., 1 day, listed as η): η
Solid form after vacuum drying ([3]; vacuum dried (Table 1 column), listed as η): η
SMILES: CO[C@H]1/C=C/O[C@@]2(C)Oc3c(C)c(O)c4c(O)c(c5c(nc6cc(C)ccn65)c4c3C2=O)NC(=O)/C(C)=C\C=C\[C@H](C)[C@H](O)[C@@H](C)[C@@H](O)[C@@H](C)[C@H](OC(C)=O)[C@@H]1C [Form η]

XRPD Result after stressing ([4]; DCM, VD w/ IPE, 11 days): amorphous
XRPD Result after stressing ([4]; MEK, VD w/ IPE, 11 days): amorphous
Form obtained in vapor diffusion experiment ([4]; methanol): Form β
Form obtained in vapor diffusion experiment ([4]; tetrahydrofuran): Form β
XRPD Result after stressing ([4]; toluene, VS, RT, 6 days, listed as Rifaximin, Amorphous): amorphous
XRPD Result after stressing ([4]; toluene, VS, RT, 6 days, listed as amorphous material): no peaks by XRPD
XRPD Result after stressing ([4]; water, VS, RT, 15 days): amorphous
Final Form (XRPD) ([1]; 43% RH, 5 days): amorphous
Final Form (XRPD) ([1]; 43% RH, 5 days, listed as Amorphous): amorphous
Final Form (XRPD) ([1]; 43% RH, 5 days, listed as amorphous rifaximin): remained amorphous
Final Form (XRPD) ([1]; 58% RH, 5 days): amorphous
Final Form (XRPD) ([1]; 58% RH, 8 days): remained amorphous
RH stability: solid form after exposure, 58% RH ([1]; 58% RH): am
Final Form (XRPD) ([1]; 75% RH, 2 days, listed as amorphous rifaximin): remained amorphous
Final Form (XRPD) ([1]; 75% RH, 5 days): amorphous
RH stability: solid form after exposure, 75% RH ([1]; 75% RH): am
wt loss from 95 to 5% RH ([2]; listed as Rifaximin Amorphous): 11.3% wt loss from 95 to 5% RH
wt loss upon equilibration at 5% RH ([2]; listed as Rifaximin Amorphous): 0.7% wt loss upon equilibration at 5% RH
Hygroscopicity [2]: hygroscopic
wt gain from 5 to 95% RH ([2]; listed as Amorphous rifaximin): 11.6%
wt gain from 5 to 95% RH ([2]; listed as Rifaximin Amorphous): 11.6% wt gain from 5 to 95% RH
Post-moisture sorption/desorption XRPD form ([2]; listed as Amorphous): amorphous
Post-moisture sorption/desorption XRPD form ([2]; listed as Amorphous rifaximin): amorphous
Post-moisture sorption/desorption XRPD form ([2]; listed as Rifaximin Amorphous): amorphous
DVS weight gain from 5-95% RH [5, 7]: 8.364% eight gain from 5-95% RH
DVS weight loss at 5% RH [5, 7]: 0.100% weight loss at 5% RH
DVS weight loss from 95-5% RH [5, 7]: 10.989% weight loss from 95-5% RH
DVS weight loss at 5% RH ([5]; second sample of Table 3 (DSC endo 79/204: crash precipitation from ethyl acetate with heptane)): 1.606% weight loss at 5% RH
DVS weight gain from 5-95% RH [5, 8]: 7.843% weight gain from 5-95% RH
DVS weight loss from 95-5% RH [5, 8]: 9.172% weight loss from 95-5% RH
SMILES: CO[C@H]1/C=C/O[C@@]2(C)Oc3c(C)c(O)c4c(O)c(c5c(nc6cc(C)ccn65)c4c3C2=O)NC(=O)/C(C)=C\C=C\[C@H](C)[C@H](O)[C@@H](C)[C@@H](O)[C@@H](C)[C@H](OC(C)=O)[C@@H]1C [amorphous]

XRPD Result after milling [6]: amorphous
SMILES: CO[C@H]1/C=C/O[C@@]2(C)Oc3c(C)c(O)c4c(O)c(c5c(nc6cc(C)ccn65)c4c3C2=O)NC(=O)/C(C)=C\C=C\[C@H](C)[C@H](O)[C@@H](C)[C@@H](O)[C@@H](C)[C@H](OC(C)=O)[C@@H]1C [crash amorphous rifaximin]

Hygroscopicity (DVS) ([5]; 5 to 95% relative humidity): moderately hygroscopic
DVS uptake of water (weight gain) ([5]; from 5 to 95% relative humidity): approximately 8%
Crystallization of post-DVS sample ([5]; post-DVS): Crystallization was not observed
SMILES: CO[C@H]1/C=C/O[C@@]2(C)Oc3c(C)c(O)c4c(O)c(c5c(nc6cc(C)ccn65)c4c3C2=O)NC(=O)/C(C)=C\C=C\[C@H](C)[C@H](O)[C@@H](C)[C@@H](O)[C@@H](C)[C@H](OC(C)=O)[C@@H]1C [lyophilized amorphous rifaximin]
